Assays:
[1] = target: T1, α2-adrenergic receptors (Rattus norvegicus, UniProt P22909); assay: Affinity for α2-adrenergic receptors in the rat, competition with [3H]-RX 821,002 on cerebral cortex membranes; assay type: binding; conditions: 0.4 nM [3H]-RX 821,002, 60 minutes at 22° C, pH 7.5
T1 construct: The membranes are prepared from the cerebral cortex of the rat; from tissue; host or cells: rat cerebral cortex membranes
T1 sequence (P22909 1-465): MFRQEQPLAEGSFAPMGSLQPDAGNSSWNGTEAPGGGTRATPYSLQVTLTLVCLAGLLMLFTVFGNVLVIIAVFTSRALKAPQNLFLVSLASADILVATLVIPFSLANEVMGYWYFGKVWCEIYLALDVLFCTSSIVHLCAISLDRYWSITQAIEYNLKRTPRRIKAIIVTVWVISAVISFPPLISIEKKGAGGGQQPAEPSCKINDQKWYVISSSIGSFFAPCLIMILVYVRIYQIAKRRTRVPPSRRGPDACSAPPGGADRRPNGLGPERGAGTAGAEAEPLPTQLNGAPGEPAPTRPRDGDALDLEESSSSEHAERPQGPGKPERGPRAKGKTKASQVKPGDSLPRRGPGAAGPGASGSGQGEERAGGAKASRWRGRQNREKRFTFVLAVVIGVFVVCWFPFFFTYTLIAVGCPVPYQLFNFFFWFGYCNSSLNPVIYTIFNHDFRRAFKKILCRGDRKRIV
Experimental: Determination of the Affinity For α2 -Adrenergic Receptors in the Rat
The affinity was determined by competition experiments with [^3 H]-RX 821,002. The membranes are prepared from the cerebral cortex of the rat and are incubated in triplicate with 0.4 nM [^3 H]-RX 821,002 and the product to be tested in a final volume of 1.0 ml, for 60 minutes at 22° C. The incubation buffer contains […] TRIS-HCl (pH 7.5), 1 mM EDTA and 100 μM GppNHp. The non-specific binding is determined using 10 μM phentolamine.
(§1) At the end of incubation, the incubation medium is filtered through WHATMAN GF/B filters impregnated with 0.1% of polyethyleneimine, and washed three times with 5 ml of cooled buffer. The radioactivity retained on the filters is determined by liquid scintillation counting. The binding isotherms are analysed by non-linear regression.

[2] = target: T2, noradrenaline reuptake sites (Rattus norvegicus, UniProt Q63380); assay: Affinity for noradrenaline reuptake sites in the rat, competition with [3H]-nisoxetine on frontal cortex membranes; assay type: binding; conditions: 2 nM [3H]-nisoxetine, 4 hours at 4° C, pH 7.4
T2 construct: The membranes are prepared from the frontal cortex of the rat; from tissue; host or cells: rat frontal cortex membranes
Experimental: Determination of the Affinity For Noradrenaline Reuptake Sites in the Rat
The affinity was determined by competition experiments with [^3 H]-nisoxetine. The membranes are prepared from the frontal cortex of the rat and are incubated in triplicate with 2 nM [^3 H]-nisoxetine and the product to be tested in a final volume of 0.5 ml, for 4 hours at 4° C. The incubation buffer contains 50 mM TRIS-HCl (pH 7.4), 120 mM NaCl and 5 mM KCl. The non-specific binding is determined using 10 μM desipramine.
as §1

[3] = target: T3, serotonin reuptake sites (Rattus norvegicus, UniProt P31652); assay: Affinity for serotonin reuptake sites in the rat, competition with [3H]-paroxetine on frontal cortex membranes; assay type: binding; conditions: 0.25 nM [3H]-paroxetine, 2 hours at 25° C, pH 7.4
T3 construct: The membranes are prepared from the frontal cortex of the rat; from tissue; host or cells: rat frontal cortex membranes
Experimental: Determination of the Affinity For Serotonin Reuptake Sites in the Rat
The affinity was determined by competition experiments with [^3 H]-paroxetine. The membranes are prepared from the frontal cortex of the rat and are incubated in triplicate with 0.25 nM [^3 H]-paroxetine and the cold ligand in a final volume of 0.4 ml, for 2 hours at 25° C. The incubation buffer contains 50 mM TRIS-HCl (pH 7.4), 120 mM NaCl and 5 mM KCl. The non-specific binding is determined using 10 μM citalopram.
as §1

[4] = test system: α2-adrenergic; conditions: described in U.S. Pat. No. 5,017,584; cited from earlier work
[5] = test system: monoamine reuptake; conditions: described in U.S. Pat. No. 5,017,584; cited from earlier work

T3 sequence (P31652 whole entry): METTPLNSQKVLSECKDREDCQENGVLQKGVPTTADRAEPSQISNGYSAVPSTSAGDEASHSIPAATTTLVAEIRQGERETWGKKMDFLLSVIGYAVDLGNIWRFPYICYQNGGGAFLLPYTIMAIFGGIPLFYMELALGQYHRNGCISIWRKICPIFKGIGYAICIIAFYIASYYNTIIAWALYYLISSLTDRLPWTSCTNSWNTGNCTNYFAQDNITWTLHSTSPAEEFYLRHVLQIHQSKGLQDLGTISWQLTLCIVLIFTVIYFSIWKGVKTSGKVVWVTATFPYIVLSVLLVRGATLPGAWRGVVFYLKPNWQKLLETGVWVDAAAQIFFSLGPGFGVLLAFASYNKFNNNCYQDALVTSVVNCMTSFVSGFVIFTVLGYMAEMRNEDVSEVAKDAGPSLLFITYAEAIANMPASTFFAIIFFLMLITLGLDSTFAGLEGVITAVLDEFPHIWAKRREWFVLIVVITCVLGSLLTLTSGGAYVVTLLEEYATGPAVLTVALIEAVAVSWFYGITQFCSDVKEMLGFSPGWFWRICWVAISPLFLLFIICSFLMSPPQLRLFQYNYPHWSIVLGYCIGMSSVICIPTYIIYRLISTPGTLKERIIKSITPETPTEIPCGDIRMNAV
T2 sequence (Q63380 1-617): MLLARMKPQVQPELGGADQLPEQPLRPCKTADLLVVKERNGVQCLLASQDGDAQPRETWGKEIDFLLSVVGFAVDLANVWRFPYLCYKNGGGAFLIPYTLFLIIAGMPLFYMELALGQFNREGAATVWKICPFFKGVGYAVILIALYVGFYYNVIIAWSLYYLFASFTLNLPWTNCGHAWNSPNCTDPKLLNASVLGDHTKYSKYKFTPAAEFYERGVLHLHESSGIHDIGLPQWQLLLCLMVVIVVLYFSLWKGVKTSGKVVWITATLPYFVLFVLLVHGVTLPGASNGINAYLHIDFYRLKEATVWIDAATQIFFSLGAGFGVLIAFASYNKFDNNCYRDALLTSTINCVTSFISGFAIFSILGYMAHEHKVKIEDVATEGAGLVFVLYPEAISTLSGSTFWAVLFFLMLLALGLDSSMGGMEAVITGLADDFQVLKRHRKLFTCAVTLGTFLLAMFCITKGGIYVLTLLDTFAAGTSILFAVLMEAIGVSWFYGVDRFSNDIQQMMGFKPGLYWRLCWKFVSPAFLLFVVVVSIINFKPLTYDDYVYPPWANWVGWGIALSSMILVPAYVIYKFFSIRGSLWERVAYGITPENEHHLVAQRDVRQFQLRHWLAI

SMILES: C1=NC[C@@]2(CC[C@@H]3Cc4ccccc4C[C@H]3C2)N1 (relative stereo) [Example 1, Spiro[(1,3-diazacyclopent-1-ene)-5: 2'(S)-(trans-1',2',3',4',4'a(R),9',9'a(S),10'-octahydroanthracene)]fumarate and spiro [(1,3-diazacyclopent-1-ene)-5: 2'(R)-(trans-1',2',3',4',4'a(S),9',9'a(R),10'-octahydroanthracene)]fumarate]
- Ki [1]: 10 nM
- Ki [2]: 200 nM
- Ki [3]: 15.8 nM

SMILES: C1=C(CC2=NCCN2)CCc2ccccc21 [napamezole]
- α2-adrenergic antagonist activity (in words) [4]: α2-adrenergic antagonist activity
- monoamine reuptake-blocking activity (in words) [5]: monoamine reuptake-blocking activity

— patent US6172097A, “Spiro imidazoline compounds” (Adir et Compagnie, priority 1998, dated 2001)
